pIC50: −log10 of the molar value.
Tests used:
human SPPL2a [1] = target: T1, human SPPL2a (Homo sapiens, UniProt Q8TCT8); test: Sppl2a TL (translocation) imaging assay in U-2 OS cells; assay type: cell-based; set-up: expressed in transfected cells; conditions: U-2 OS cells expressing human SPPL2a and EGFP-TNFα(aa1-76) NTF substrate; 24 h
T1 sequence (Q8TCT8 26-520): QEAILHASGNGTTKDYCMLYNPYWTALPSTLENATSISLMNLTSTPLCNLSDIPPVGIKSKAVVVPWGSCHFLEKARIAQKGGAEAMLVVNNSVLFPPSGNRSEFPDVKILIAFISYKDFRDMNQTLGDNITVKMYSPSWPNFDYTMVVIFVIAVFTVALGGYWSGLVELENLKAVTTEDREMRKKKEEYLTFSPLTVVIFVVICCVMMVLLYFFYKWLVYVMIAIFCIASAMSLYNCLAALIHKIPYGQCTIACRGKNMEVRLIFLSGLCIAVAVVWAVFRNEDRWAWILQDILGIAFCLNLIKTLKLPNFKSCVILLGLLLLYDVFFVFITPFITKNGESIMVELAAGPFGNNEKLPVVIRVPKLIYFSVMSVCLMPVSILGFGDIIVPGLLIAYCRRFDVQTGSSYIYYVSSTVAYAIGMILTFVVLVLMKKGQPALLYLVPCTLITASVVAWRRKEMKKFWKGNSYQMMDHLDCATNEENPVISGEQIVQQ
Method in brief: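 U-2 OS cells stably expressing human SPPL2a plus doxycycline-induced EGFP-TNFα(aa1-76) NTF, treated 24 h at 37 °C with inhibitor (100 μM–1 nM, 11 points, 0.9% DMSO, 5 μg/mL doxycycline). Imaging of nuclear-minus-cytoplasmic EGFP intensity; % inhibition versus 0.5 μM LY-411,575 and DMSO, IC50 by nonlinear regression; CC50 from cell count.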

human SPPL2a [2] = target: T1, human SPPL2a; test: Sppl2a RGA (reporter gene assay) in HEK293 cells; assay type: cell-based; set-up: expressed in transfected cells; host or cells: HEK293 (transient); conditions: NT-TNF-VP16-Gal4 substrate, Gal4-luciferase reporter, 24 h
Method in brief: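 Cleavage of a membrane-bound TNF N-terminal–VP16-Gal4 substrate drives Gal4-luciferase expression in transiently transfected HEK293 cells also expressing human SPPL2a. Compounds incubated 24 h, 37 °C, 5% CO2; luminescence read, normalized and plotted against concentration for IC50.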

pIC50 (human SPPL2a [1])	pIC50 (human SPPL2a [2])	Compound
8.00	8.15	C[C@H](CC(=O)Nc1cn(-c2ccc(C(F)(F)F)nc2)nc1Cl)C(=O)N[C@@H]1C(=O)N2CCCN2Cc2ccccc21 [Example 88, (R)-N^4-(3-Chloro-1-(6-(trifluoromethyl)pyridin-3-yl)-1H-pyrazol-4-yl)-2-methyl-N^1-((S)-11-oxo-2,3,10,11-tetrahydro-1H,5H-benzo[d]pyrazolo [1,2-a][1,2]diazepin-10-yl)succinamide]
7.92	7.96	Cc1nn(-c2ccc(C(F)(F)F)nc2)cc1NC(=O)C[C@@H](C)C(=O)N[C@@H]1C(=O)N2CCCN2Cc2ccccc21 [Example 92, (R)-2-Methyl-N^4-(3-methyl-1-(6-(trifluoromethyl)pyridin-3-yl)-1H-pyrazol-4-yl)-N^1-((S)-11-oxo-2,3,10,11-tetrahydro-1H,5H-benzo[d]pyrazolo [1,2-a][1,2]diazepin-10-yl)succinamide]
7.92	7.64	C[C@H](CC(=O)Nc1sc(-c2cnn(C3COC3)c2)nc1Cl)C(=O)N[C@@H]1C(=O)N2CCCN2Cc2ccccc21 [Example 95, (R)-N^4-(4-Chloro-2-(1-(oxetan-3-yl)-1H-pyrazol-4-yl)thiazol-5-yl)-2-methyl-N^1-((S)-11-oxo-2,3,10,11-tetrahydro-1H,5H-benzo[d]pyrazolo [1,2-a][1,2]diazepin-10-yl)succinamide]
7.92	7.55	C[C@H](CC(=O)Nc1cc(-c2ccco2)nn1C1CC1)C(=O)N[C@@H]1C(=O)N2CCCN2Cc2ccccc21 [Example 96, (R)-N^4-(1-Cyclopropyl-3-(furan-2-yl)-1H-pyrazol-5-yl)-2-methyl-N^1-((S)-11-oxo-2,3,10,11-tetrahydro-1H,5H-benzo[d]pyrazolo [1,2-a][1,2]diazepin-10-yl)succinamide]
7.89	7.82	COc1ccc(-c2cc(NC(=O)C[C@@H](C)C(=O)N[C@@H]3C(=O)N4CCCN4Cc4ccccc43)n(C)n2)cn1 [Example 97, (R)-N^4-(3-(6-Methoxypyridin-3-yl)-1-methyl-1H-pyrazol-5-yl)-2-methyl-N^1-((S)-11-oxo-2,3,10,11-tetrahydro-1H,5H-benzo[d]pyrazolo [1,2-a][1,2]diazepin-10-yl)succinamide]
7.85	8.10	C[C@H](CC(=O)Nc1cc(-c2cncc(C(F)(F)F)c2)nn1C)C(=O)N[C@@H]1C(=O)N2CCCN2Cc2ccccc21 [Example 98, (R)-2-Methyl-N^4-(1-methyl-3-(5-(trifluoromethyl)pyridin-3-yl)-1H-pyrazol-5-yl)-N^1-((S)-11-oxo-2,3,10,11-tetrahydro-1H,5H-benzo[d]pyrazolo [1,2-a][1,2]diazepin-10-yl)succinamide]
7.77	7.77	O=C(C[C@H](C(=O)N[C@@H]1C(=O)N2CCCN2C(=O)c2ccccc21)C1CC1)Nc1sc(-c2cnn(C(F)F)c2)nc1Cl [Example 104, (S)-N^4-(4-Chloro-2-(1-(difluoromethyl)-1H-pyrazol-4-yl)thiazol-5-yl)-2-cyclopropyl-N^1-((S)-5,11-dioxo-2,3,10,11-tetrahydro-1H,5H-benzo[d]pyrazolo [1,2-a][1,2]diazepin-10-yl)succinamide]
7.74	7.64	Cc1ccc(-c2cc(NC(=O)C[C@@H](C)C(=O)N[C@@H]3C(=O)N4CCCN4Cc4ccccc43)n(C)n2)cn1 [Example 105, (R)-2-Methyl-N^4-(1-methyl-3-(6-methylpyridin-3-yl)-1H-pyrazol-5-yl)-N^1-((S)-11-oxo-2,3,10,11-tetrahydro-1H,5H-benzo[d]pyrazolo [1,2-a][1,2]diazepin-10-yl)succinamide]
8.00	8.10	O=C(C[C@H](C(=O)N[C@@H]1C(=O)N2CC3(CC3)CN2C(=O)c2ccccc21)C1CC1)Nc1sc(-c2ccc(C(F)(F)F)nc2)nc1Cl [Example 106, (S)-N^4-(4-Chloro-2-(6-(trifluoromethyl)pyridin-3-yl)thiazol-5-yl)-2-cyclopropyl-N^1-((S)-5,11-dioxo-10,11-dihydro-1H,3H,5H-spiro[benzo[d]pyr-azolo[1,2-a][1,2]diazepine-2,1′-cyclopropan]-10-yl)succinamide]
7.82	7.96	O=C(C[C@H](C(=O)N[C@@H]1C(=O)N2CCCN2C(=O)c2ccccc21)C1CC1)Nc1sc(-c2ccc(C(F)(F)F)nc2)nc1Cl [Example 107, (S)-N^4-(4-Chloro-2-(6-(trifluoromethyl)pyridin-3-yl)thiazol-5-yl)-2-cyclopropyl-N^1-((S)-5,11-dioxo-2,3,10,11-tetrahydro-1H,5H-benzo[d]pyrazolo [1,2-a][1,2]diazepin-10-yl)succinamide]
8.52	8.52	C[C@H](CC(=O)Nc1sc(-c2ccc(C(F)(F)F)nc2)nc1Cl)C(=O)N[C@@H]1C(=O)N2CCCN2Cc2ccccc21 [Example 108, (R)-N^4-(4-Chloro-2-(6-(trifluoromethyl)pyridin-3-yl)thiazol-5-yl)-2-methyl-N^1-((S)-11-oxo-2,3,10,11-tetrahydro-1H,5H-benzo[d]pyrazolo [1,2-a][1,2]diazepin-10-yl)succinamide]
8.70	8.52	C[C@H](CC(=O)Nc1cc(C(=O)Nc2ccccc2F)nn1C)C(=O)N[C@@H]1C(=O)N2CCCN2Cc2ccccc21 [Example 109, (R)—N^4-(3-((2-fluorophenyl)carbamoyl)-1-methyl-1H-pyrazol-5-yl)-2-methyl-N^1—((S)-11-oxo-2,3,10,11-tetrahydro-1H,5H-benzo[d]pyrazolo[1,2-a][1,2]diazepin-10-yl)succinamide]
7.82	7.70	Cc1cccc(C)c1NC(=O)c1cc(NC(=O)C[C@@H](C)C(=O)N[C@@H]2C(=O)N3CCCN3Cc3ccccc32)n(C)n1 [Example 110]
6.18	7.11	C[C@H](Cc1nc2ccccc2[nH]1)C(=O)N[C@@H]1C(=O)N2CCCN2Cc2ccccc21 [Example 111, (R)-3-(1H-benzo[d]imidazol-2-yl)-2-methyl-N—((S)-11-oxo-2,3,10,11-tetrahydro-1H,5H-benzo[d]pyrazolo[1,2-a][1,2]diazepin-10-yl)propanamide]
6.86	7.55	Cc1cccc2nc(C[C@@H](C)C(=O)N[C@@H]3C(=O)N4CCCN4Cc4ccccc43)[nH]c12 [Example 112, (R)-2-methyl-3-(7-methyl-1H-benzo[d]imidazol-2-yl)-N-((S)-11-oxo-2,3,10,11-tetrahydro-1H,5H-benzo[d]pyrazolo[1,2-a][1,2]diazepin-10-yl)propanamide]
6.74	7.38	C[C@H](Cc1nc2cccc(Br)c2[nH]1)C(=O)N[C@@H]1C(=O)N2CCCN2Cc2ccccc21 [Example 113, (R)-3-(7-bromo-1H-benzo[d]imidazol-2-yl)-2-methyl-N-((S)-11-oxo-2,3,10,11-tetrahydro-1H,5H-benzo[d]pyrazolo[1,2-a][1,2]diazepin-10-yl)propanamide]
6.26	7.20	C[C@H](Cc1nc2cccc(C(F)(F)F)c2[nH]1)C(=O)N[C@@H]1C(=O)N2CCCN2Cc2ccccc21 [Example 114, (R)-2-methyl-N-((S)-11-oxo-2,3,10,11-tetrahydro-1H,5H-benzo[d]pyrazolo[1,2-a][1,2]diazepin-10-yl)-3-(7-(trifluoromethyl)-1H-benzo[d]imidazol-2-yl)propanamide]
5.40	6.64	C[C@H](Cc1nc2c(Cl)cccc2[nH]1)C(=O)N[C@@H]1C(=O)N2CCCN2Cc2ccccc21 [Example 115, (R)-3-(4-chloro-1H-benzo[d]imidazol-2-yl)-2-methyl-N-((S)-11-oxo-2,3,10,11-tetrahydro-1H,5H-benzo[d]pyrazolo[1,2-a][1,2]diazepin-10-yl)propanamide]
6.94	7.89	Cc1c(F)ccc2nc(C[C@@H](C)C(=O)N[C@@H]3C(=O)N4CCCN4Cc4ccccc43)[nH]c12 [Example 116, (R)-3-(6-fluoro-7-methyl-1H-benzo[d]imidazol-2-yl)-2-methyl-N-((S)-11-oxo-2,3,10,11-tetrahydro-1H,5H-benzo[d]pyrazolo[1,2-a][1,2]diazepin-10-yl)propanamide]
6.85	7.68	Cc1cc(F)cc2nc(C[C@@H](C)C(=O)N[C@@H]3C(=O)N4CCCN4Cc4ccccc43)[nH]c12 [Example 117, (R)-3-(5-fluoro-7-methyl-1H-benzo[d]imidazol-2-yl)-2-methyl-N-((S)-11-oxo-2,3,10,11-tetrahydro-1H,5H-benzo[d]pyrazolo[1,2-a][1,2]diazepin-10-yl)propanamide]

Source: patent US20230365571A1, “COMPOUNDS AND COMPOSITIONS AS Sppl2a INHIBITORS” (Novartis AG, priority 2020, published 2023)
